Test system: MV-4-11 cells
Assay: Gene expression microarray analysis (Affymetrix PrimeView) and GSEA
Format: cell-based, human
Set-up: RFU PODN (11730768_x_at) / Fold change /veh PODN (11730768_x_at) / RFU LINC00158 (11744669_a_at) / Fold change /veh LINC00158 (11744669_a_at) / RFU DUSP10 (11751237_a_at) / Fold change /veh DUSP10 (11751237_a_at) / RFU ID3 (11757404_x_at) / Fold change /veh ID3 (11757404_x_at) / RFU PLEKHG5 (11737974_s_at) / Fold change /veh PLEKHG5 (11737974_s_at) / RFU LRRC4B (11730491_at) / Fold change /veh LRRC4B (11730491_at) / RFU GIMAP4 (11747438_a_at) / Fold change /veh GIMAP4 (11747438_a_at) / RFU KRT8 (11758183_x_at) / Fold change /veh KRT8 (11758183_x_at) / RFU CNN1 (11734310_a_at) / Fold change /veh CNN1 (11734310_a_at) / RFU VPS37D (11726825_at) / Fold change /veh VPS37D (11726825_at) / RFU C10orf10 (11716522_x_at) / Fold change /veh C10orf10 (11716522_x_at) / RFU KIR2DL2 /// KIR2DL4 /// KIR2DL5A /// KIR2DL5B /// KIR2DS1 /// KIR2DS2 /// KIR2DS3 /// KIR2DS4 /// KIR3DL3 /// KIR3DL3 /// KIR3DS1 (11738374_at) / Fold change /veh KIR2DL2 /// KIR2DL4 /// KIR2DL5A /// KIR2DL5B /// KIR2DS1 /// KIR2DS2 /// KIR2DS3 /// KIR2DS4 /// KIR3DL3 /// KIR3DL3 /// KIR3DS1 (11738374_at) / RFU C1QL1 (11718748_at) / Fold change /veh C1QL1 (11718748_at) / RFU TMPRSS4 (11747572_a_at) / Fold change /veh TMPRSS4 (11747572_a_at) / RFU HAMP (11756126_x_at) / Fold change /veh HAMP (11756126_x_at) / RFU RNFT2 (11725882_a_at) / Fold change /veh RNFT2 (11725882_a_at) / RFU NR4A2 (11747474_a_at) / Fold change /veh NR4A2 (11747474_a_at) / RFU ABCC12 (11746883_a_at) / Fold change /veh ABCC12 (11746883_a_at) / RFU TMEM136 (11760407_x_at) / Fold change /veh TMEM136 (11760407_x_at) / RFU CLDN22 /// WWC2 (11732394_at) / Fold change /veh CLDN22 /// WWC2 (11732394_at) / RFU HLA-DPB1 (11760878_x_at) / Fold change /veh HLA-DPB1 (11760878_x_at) / RFU SPINT1 (11716480_a_at) / Fold change /veh SPINT1 (11716480_a_at) / RFU GAP43 (11754022_s_at) / Fold change /veh GAP43 (11754022_s_at) / RFU A4GNT (11735810_at) / Fold change /veh A4GNT (11735810_at) / RFU PRB3 (11715151_x_at) / Fold change /veh PRB3 (11715151_x_at) / RFU TUBB4B (11761932_at) / Fold change /veh TUBB4B (11761932_at) / RFU CAPN14 (11732068_a_at) / Fold change /veh CAPN14 (11732068_a_at) / RFU TMCC2 (11721928_a_at) / Fold change /veh TMCC2 (11721928_a_at) / RFU IRGQ (11745062_a_at) / Fold change /veh IRGQ (11745062_a_at) / RFU FAM174B (11720279_a_at) / Fold change /veh FAM174B (11720279_a_at) / RFU TMPRSS4 (11748680_a_at) / Fold change /veh TMPRSS4 (11748680_a_at) / RFU FAM212B (11763350_a_at) / Fold change /veh FAM212B (11763350_a_at) / RFU PLEKHG5 (11743358_a_at) / Fold change /veh PLEKHG5 (11743358_a_at) / RFU ZSCAN30 (11745921_a_at) / Fold change /veh ZSCAN30 (11745921_a_at) / RFU CMKLR1 (11741424_a_at) / Fold change /veh CMKLR1 (11741424_a_at) / RFU LOC101060620 /// MAPK8IP1 (11723275_at) / Fold change /veh LOC101060620 /// MAPK8IP1 (11723275_at) / RFU SPTSSB (11747773_x_at) / Fold change /veh SPTSSB (11747773_x_at) / RFU PRSS12 (11739890_at) / Fold change /veh PRSS12 (11739890_at) / RFU BIN1 (11741810_x_at) / Fold change /veh BIN1 (11741810_x_at) / RFU WNT11 (11732464_a_at) / Fold change /veh WNT11 (11732464_a_at) / RFU C10orf10 (11716521_a_at) / Fold change /veh C10orf10 (11716521_a_at) / RFU C5orf56 (11738089_at) / Fold change /veh C5orf56 (11738089_at) / RFU CYB561 (11721691_x_at) / Fold change /veh CYB561 (11721691_x_at) / RFU ANKRD19P (11752326_a_at) / Fold change /veh ANKRD19P (11752326_a_at) / RFU OR2T12 /// OR2T33 /// OR2T8 (11738714_s_at) / Fold change /veh OR2T12 /// OR2T33 /// OR2T8 (11738714_s_at) / RFU VCAN (11748164_a_at) / Fold change /veh VCAN (11748164_a_at) / RFU JSRP1 (11732532_at) / Fold change /veh JSRP1 (11732532_at) / RFU KRTAP10-11 (11738290_x_at) / Fold change /veh KRTAP10-11 (11738290_x_at) / RFU MYO3A (11730013_a_at) / Fold change /veh MYO3A (11730013_a_at) / RFU EBF3 (11725865_a_at) / Fold change /veh EBF3 (11725865_a_at) / RFU CAMK2N1 (11719241_x_at) / Fold change /veh CAMK2N1 (11719241_x_at) / RFU C5orf56 (11738088_a_at) / Fold change /veh C5orf56 (11738088_a_at) / RFU OLFML3 (11715873_a_at) / Fold change /veh OLFML3 (11715873_a_at) / RFU LOC100653217 /// NTM (11731650_a_at) / Fold change /veh LOC100653217 /// NTM (11731650_a_at) / RFU MAPK11 (11762145_a_at) / Fold change /veh MAPK11 (11762145_a_at) / RFU FIZ1 (11724087_x_at) / Fold change /veh FIZ1 (11724087_x_at) / RFU OASL (11726364_x_at) / Fold change /veh OASL (11726364_x_at) / RFU SOX15 (11748057_x_at) / Fold change /veh SOX15 (11748057_x_at) / RFU CD79A (11719716_a_at) / Fold change /veh CD79A (11719716_a_at) / RFU HIST1H1D (11736915_at) / Fold change /veh HIST1H1D (11736915_at) / RFU CASKIN2 (11723855_a_at) / Fold change /veh CASKIN2 (11723855_a_at) / RFU LOC730098 (11760151_x_at) / Fold change /veh LOC730098 (11760151_x_at) / RFU OR4N2 (11742367_at) / Fold change /veh OR4N2 (11742367_at) / RFU PRRT2 (11749266_a_at) / Fold change /veh PRRT2 (11749266_a_at) / RFU SNX32 (11753110_a_at) / Fold change /veh SNX32 (11753110_a_at) / RFU CDHR5 (11726645_a_at) / Fold change /veh CDHR5 (11726645_a_at) / RFU RCAN1 (11760418_a_at) / Fold change /veh RCAN1 (11760418_a_at) / RFU FAM167A (11723789_a_at) / Fold change /veh FAM167A (11723789_a_at) / RFU FAM26E (11764081_at) / Fold change /veh FAM26E (11764081_at) / RFU ISYNA1 (11749810_s_at) / Fold change /veh ISYNA1 (11749810_s_at) / RFU ACY1 (11761880_at) / Fold change /veh ACY1 (11761880_at) / RFU 11764098_at / Fold change /veh 11764098_at / RFU SAMD14 (11745864_x_at) / Fold change /veh SAMD14 (11745864_x_at) / RFU NPB (11741838_a_at) / Fold change /veh NPB (11741838_a_at) / RFU TMPRSS6 (11731388_a_at) / Fold change /veh TMPRSS6 (11731388_a_at) / RFU KRTAP10-2 (11738614_at) / Fold change /veh KRTAP10-2 (11738614_at) / RFU ARHGAP8 /// PRR5-ARHGAP8 (11727945_x_at) / Fold change /veh ARHGAP8 /// PRR5-ARHGAP8 (11727945_x_at) / RFU KRTAP5-7 /// NADSYN1 (11734609_at) / Fold change /veh KRTAP5-7 /// NADSYN1 (11734609_at) / RFU RASL12 (11751679_a_at) / Fold change /veh RASL12 (11751679_a_at) / RFU CDKN2B (11736163_a_at) / Fold change /veh CDKN2B (11736163_a_at) / RFU PRF1 (11729649_at) / Fold change /veh PRF1 (11729649_at) / RFU, ZNF638 /// ZNF638-IT1 / Fold change vs veh, ZNF638 /// ZNF638-IT1 / RFU, PANK3 / Fold change vs veh, PANK3 / RFU, SH3YL1 / Fold change vs veh, SH3YL1 / RFU, ZEB2 / Fold change vs veh, ZEB2 / RFU, NRIP1 / Fold change vs veh, NRIP1 / RFU, PTTG1IP / Fold change vs veh, PTTG1IP / RFU, CAPN2 / Fold change vs veh, CAPN2 / RFU, MED14 / Fold change vs veh, MED14 / RFU, SNORA58 / Fold change vs veh, SNORA58 / RFU, C1orf63 / Fold change vs veh, C1orf63 / RFU, LRRFIP1 / Fold change vs veh, LRRFIP1 / RFU, NDUFAF7 / Fold change vs veh, NDUFAF7 / RFU, SLC12A2 / Fold change vs veh, SLC12A2 / RFU, IBTK / Fold change vs veh, IBTK / RFU, ESF1 / Fold change vs veh, ESF1 / Fold change vs veh, TMEM50B / RFU, TAOK1 / Fold change vs veh, TAOK1 / RFU, ACBD3 / Fold change vs veh, ACBD3 / RFU, TMA16 / Fold change vs veh, TMA16 / RFU, RWDD3 / Fold change vs veh, RWDD3 / RFU, BCAT1 / Fold change vs veh, BCAT1 / RFU, EDEM3 / Fold change vs veh, EDEM3 / RFU, TMEM33 / Fold change vs veh, TMEM33 / RFU, WDR75 / Fold change vs veh, WDR75 / RFU, AHCTF1 / Fold change vs veh, AHCTF1 / RFU, TFRC / Fold change vs veh, TFRC / RFU, ZDHHC17 / Fold change vs veh, ZDHHC17 / RFU, NOM1 / Fold change vs veh, NOM1 / RFU, ARL8B / Fold change vs veh, ARL8B / RFU, ZBTB11 / Fold change vs veh, ZBTB11 / RFU, TAMM41 / Fold change vs veh, TAMM41 / RFU, KIAA1704 /// LOC100996395 / Fold change vs veh, KIAA1704 /// LOC100996395 / RFU, ING1 / Fold change vs veh, ING1 / RFU, TRMT61B / Fold change vs veh, TRMT61B / RFU, FUBP3 / Fold change vs veh, FUBP3 / RFU, TP53 / Fold change vs veh, TP53 / RFU, TNKS2 / Fold change vs veh, TNKS2 / RFU, ZFP14 / Fold change vs veh, ZFP14 / RFU, ACTR2 / Fold change vs veh, ACTR2 / RFU, PPP3R1 / Fold change vs veh, PPP3R1 / RFU, PIK3R1 / Fold change vs veh, PIK3R1 / RFU, HNRNPA1 / Fold change vs veh, HNRNPA1 / RFU, RNF170 / Fold change vs veh, RNF170 / RFU, ZNF28 / Fold change vs veh, ZNF28 / RFU, RNGTT / Fold change vs veh, RNGTT / RFU, OGT / Fold change vs veh, OGT / RFU, BRD1 / Fold change vs veh, BRD1 / RFU, MARS / Fold change vs veh, MARS / RFU, ZNF655 / Fold change vs veh, ZNF655 / RFU, FAHD1 / Fold change vs veh, FAHD1 / RFU, BDP1 / Fold change vs veh, BDP1 / RFU, LRRCC1 / Fold change vs veh, LRRCC1 / RFU, ARID1A / Fold change vs veh, ARID1A / RFU, ZNF146 / Fold change vs veh, ZNF146 / RFU, ZNF330 / Fold change vs veh, ZNF330 / RFU, GPN3 / Fold change vs veh, GPN3 / RFU, C9orf123 / Fold change vs veh, C9orf123 / RFU, N4BP2L2 / Fold change vs veh, N4BP2L2 / RFU, ARFIP1 / Fold change vs veh, ARFIP1 / RFU, FAM179B / Fold change vs veh, FAM179B / RFU, BCL10 / Fold change vs veh, BCL10 / RFU, UHRF1BP1L / Fold change vs veh, UHRF1BP1L / RFU, BET1 / Fold change vs veh, BET1 / RFU, CNOT2 / Fold change vs veh, CNOT2 / RFU, ZNF268 / Fold change vs veh, ZNF268 / Fold change vs veh, ZNF507 / RFU, DGCR2 / Fold change vs veh, DGCR2 / RFU, WDSUB1 / Fold change vs veh, WDSUB1 / Fold change vs veh, HSP90B1 /// MIR3652 / RFU, ADSS / Fold change vs veh, ADSS / RFU, GK / Fold change vs veh, GK / RFU, ZNF148 / Fold change vs veh, ZNF148 / RFU, TAF9 / Fold change vs veh, TAF9 / RFU, SLC1A5 / Fold change vs veh, SLC1A5 / RFU, SLMO2 / Fold change vs veh, SLMO2 / RFU, ABCC4 / Fold change vs veh, ABCC4 / RFU, LOC101060439 /// RAP1B / Fold change vs veh, LOC101060439 /// RAP1B / RFU, RFX7 / Fold change vs veh, RFX7 / RFU, GTPBP10 / Fold change vs veh, GTPBP10 / RFU, CNEP1R1 / Fold change vs veh, CNEP1R1 / RFU, BIVM-ERCC5 /// ERCC5 / Fold change vs veh, BIVM-ERCC5 /// ERCC5 / RFU, ILF3 / Fold change vs veh, ILF3 / RFU 11762660_at / Fold change /veh 11762660_at / RFU VCAN (11757783_s_at) / Fold change /veh VCAN (11757783_s_at) / RFU DDX43 (11728927_at) / Fold change /veh DDX43 (11728927_at) / RFU KRT8 (11758188_x_at) / Fold change /veh KRT8 (11758188_x_at) / RFU NKD1 (11759106_at) / Fold change /veh NKD1 (11759106_at) / RFU SRD5A1 (11742802_a_at) / Fold change /veh SRD5A1 (11742802_a_at) / RFU TPSAB1 /// TPSB2 (11721975_s_at) / Fold change /veh TPSAB1 /// TPSB2 (11721975_s_at) / RFU GSTM3 (11746129_a_at) / Fold change /veh GSTM3 (11746129_a_at) / RFU IL23R (11737362_x_at) / Fold change /veh IL23R (11737362_x_at) / RFU TMEM51 (11727254_a_at) / Fold change /veh TMEM51 (11727254_a_at) / RFU PIWIL2 (11732686_x_at) / Fold change /veh PIWIL2 (11732686_x_at) / RFU ORM1 (11744905_x_at) / Fold change /veh ORM1 (11744905_x_at) / RFU CCDC152 (11743942_at) / Fold change /veh CCDC152 (11743942_at) / RFU ECM1 (11717891_a_at) / Fold change /veh ECM1 (11717891_a_at) / RFU IL23R (11748794_a_at) / Fold change /veh IL23R (11748794_a_at) / RFU TNFAIP8L3 (11732012_x_at) / Fold change /veh TNFAIP8L3 (11732012_x_at) / RFU MBOAT4 (11741988_at) / Fold change /veh MBOAT4 (11741988_at) / RFU 11764193_at / Fold change /veh 11764193_at / RFU TMEM53 (11763286_at) / Fold change /veh TMEM53 (11763286_at) / RFU MAGEB2 (11727129_at) / Fold change /veh MAGEB2 (11727129_at) / RFU TMEM200A (11744735_a_at) / Fold change /veh TMEM200A (11744735_a_at) / RFU CCDC152 (11751479_a_at) / Fold change /veh CCDC152 (11751479_a_at) / RFU FAM211A (11726209_a_at) / Fold change /veh FAM211A (11726209_a_at) / RFU RGS16 (11746705_a_at) / Fold change /veh RGS16 (11746705_a_at) / RFU VCAN (11755009_s_at) / Fold change /veh VCAN (11755009_s_at) / RFU RHOB (11743442_s_at) / Fold change /veh RHOB (11743442_s_at) / RFU RGS16 (11720943_a_at) / Fold change /veh RGS16 (11720943_a_at) / RFU RGS16 (11720944_at) / Fold change /veh RGS16 (11720944_at) / RFU, VPS4B / Fold change vs veh, VPS4B / RFU, CREB1 / Fold change vs veh, CREB1 / RFU, DNAJC13 / Fold change vs veh, DNAJC13 / RFU, GNAQ / Fold change vs veh, GNAQ / RFU, CDK5R1 / Fold change vs veh, CDK5R1 / RFU, ZRANB3 / Fold change vs veh, ZRANB3 / RFU, CUL4A / Fold change vs veh, CUL4A / RFU, CCNY / Fold change vs veh, CCNY / RFU, UFL1 / Fold change vs veh, UFL1 / RFU, COG3 / Fold change vs veh, COG3 / RFU, DIAPH2 / Fold change vs veh, DIAPH2 / RFU, SKA2 / Fold change vs veh, SKA2 / RFU, AFF3 / Fold change vs veh, AFF3 / RFU, LMF1 / Fold change vs veh, LMF1 / RFU, IPO11 / Fold change vs veh, IPO11 / RFU, DFFB / Fold change vs veh, DFFB / RFU, FOXP1 / Fold change vs veh, FOXP1 / RFU, CARD8 / Fold change vs veh, CARD8 / RFU, STRN3 / Fold change vs veh, STRN3 / RFU, ADK / Fold change vs veh, ADK / RFU, RASSF2 / Fold change vs veh, RASSF2 / RFU, WIPF1 / Fold change vs veh, WIPF1 / RFU, LARP1B / Fold change vs veh, LARP1B / RFU, RASA1 / Fold change vs veh, RASA1 / RFU, RB1 / Fold change vs veh, RB1 / RFU, PPFIA1 / Fold change vs veh, PPFIA1 / RFU, MAT2A / Fold change vs veh, MAT2A / RFU, CCT5 / Fold change vs veh, CCT5 / RFU, WDR92 / Fold change vs veh, WDR92 / RFU, CUX1 / Fold change vs veh, CUX1 / RFU, TTC7A / Fold change vs veh, TTC7A / RFU, TMEM135 / Fold change vs veh, TMEM135 / RFU, DEPTOR / Fold change vs veh, DEPTOR / RFU, CPM / Fold change vs veh, CPM / RFU, DNAJB6 / Fold change vs veh, DNAJB6 / RFU, CACNA2D3 / Fold change vs veh, CACNA2D3 / RFU, DTX4 / Fold change vs veh, DTX4 / RFU, TFCP2 / Fold change vs veh, TFCP2 / RFU, GMCL1 /// GMCL1P1 / Fold change vs veh, GMCL1 /// GMCL1P1 / RFU, AEBP2 / Fold change vs veh, AEBP2 / RFU, SNHG1 /// SNORD22 /// SNORD25 /// SNORD26 /// SNORD27 /// SNORD28 /// SNORD29 /// SNORD31 / Fold change vs veh, SNHG1 /// SNORD22 /// SNORD25 /// SNORD26 /// SNORD27 /// SNORD28 /// SNORD29 /// SNORD31 / Fold change (Aza/veh), C12orf56 (ProbeSet 11735607_a_at) / Fold change (ACY-1035/veh), C12orf56 (ProbeSet 11735607_a_at) / Fold change (Aza/veh), FGFR1OP (ProbeSet 11751329_s_at) / Fold change (ACY-1035/veh), FGFR1OP (ProbeSet 11751329_s_at) / Fold change (Aza/veh), VPS36 (ProbeSet 11739960_a_at) / Fold change (ACY-1035/veh), VPS36 (ProbeSet 11739960_a_at) / RFU SYPL1 (11715823_x_at) / Fold change /veh SYPL1 (11715823_x_at) / RFU IGFBP7 (11715501_s_at) / Fold change /veh IGFBP7 (11715501_s_at) / RFU REEP3 (11722064_at) / Fold change /veh REEP3 (11722064_at) / RFU IGLL1 (11728026_x_at) / Fold change /veh IGLL1 (11728026_x_at): dose or concentration left out as unconfirmed
Settings: ProbeSet 11753055_s_at; LIST B

`Nc1ccc(-c2cccs2)cc1NC(=O)c1ccc2c(c1)cc(C1CC1)n2CCN1CCOCC1` [ACY-1035] was tested, and the “RFU, LOC101060439 /// RAP1B” value was 639.03 RFU.
